Measured values published in US8946187B2, “Materials and methods related to microRNA-21, mismatch repair, and colorectal cancer” (The Ohio State University, priority 2010, dated 2015).

Test system: Lovo tumor xenografts
Test: Colorectal cancer xenograft model, 5-FU treatment
Type: in vivo, nude mice
Conditions: 5-FU 50 mg/kg/day i.p., 5 days per week for 2 weeks; Lovo(MSH2+) vs Lovo(MSH2−)
Excerpt: Lovo-MSH2 positive and Lovo-MSH2 negative cells were stably infected with the pCDH-CMV-MCS-EF1-miRNA expression plasmid containing the full-length miR-21 and the GFP gene under the control of two different promoters (System Biosciences, Mountain View, Calif.). An empty vector was used as control. Pre-miR-21 expression and control constructs were packaged with pPACKH1 Lentivector Packaging Plasmid mix (System Biosciences) in 293-TN packaging cell line. Viruses were concentrated using PEG-It™ Virus Precipitation Solution and titers analyzed using UltraRapid Lentiviral Titer Kit (System Biosciences). Infected cells were selected by FACS analysis (FACS Calibur, Becton Dickinson Immunocytometry Systems). Infection efficiency >90% was verified by fluorescent microscopy and further confirmed by real time PCR for miR-21 expression.
Animal studies were performed according to institutional guidelines. […] Tumor volume was measured at the beginning of treatment and then once a week. The estimated tumor volume (V) was calculated by the following formula: V=W2×L×0.5, where W represents the […] tumor diameter. The individual relative tumor volume (RTV) was calculated as follows RTV=Vx/V1 where Vx is the volume in cubic millimeters at a given time and V1 is the volume at the start of treatment. […]

**Q.** How did the “efficacy of 5-FU treatment on tumor xenografts” value turn out when `O=c1[nH]cc(F)c(=O)[nH]1` [5-FU, 5-fluorouracil] was run?
**A.** The value was “more efficacious with Lovo(MSH2+) tumor xenografts compared to Lovo(MSH2−) tumor xenografts”.
